# Results reported in EPA's ToxValDB 9.5.
# Several values for one entry are separate records, joined by “and”; a condition that tells them apart may be missing. Equal entries are not always repeated.
# Assays:
# Rattus norvegicus = settings: subchronic; duration: 90 days; oral; diet; M/F; CD; Deaths + Body Weight Changes: decrease + Food Consumption: decrease + Hematology: RBC decrease, HGB decrease, HCT decrease, WBC decrease, …
# Monkey = settings: oral, capsule, Cynomolgus; for NOEL: short-term, duration: 29 days, blood: basophils + blood: eosinophils + blood: lymphocytes + blood: monocytes + blood: reticulocytes + blood: segmented neutrophils + blood…
# Mus musculus = settings: oral
# [1] = chronic, duration: 26 weeks, M, lymphocyte count (%) (Day 182)
# [2] = developmental, duration: 16 days, gavage, F, B6C3F1, generation: F1, F1: spleen: spleen B220+ cells + F1: spleen: Splenic NK cell activity
# [3] = developmental, duration: 16 days, gavage, M, B6C3F1, generation: F1, F1: IgM antibody titer (SRBC) + F1: thymus: thymus CD3+ cells + F1: thymus: thymus CD4+ cells
# [4] = developmental, duration: 16 days, gavage, M, B6C3F1, generation: F1, F1: spleen: Splenic NK cell activity
# [5] = short-term, duration: 7 days, gavage, M, BALB/c, spleen: lymphocyte proliferation (ConA)
# [6] = short-term, duration: 7 days, gavage, M, BALB/c, spleen: spleen CD3+ cells (cells normalized to control)
# [7] = short-term, duration: 7 days, gavage, M, C57BL/6, serum corticosterone + spleen: IFN-gamma levels + spleen: IL-2 secreting splenocytes + spleen: spleen: relative weight + thymus: thymus: …
# [8] = short-term, duration: 7 days, gavage, M, C57BL/6, serum corticosterone + spleen: lymphocyte proliferation (LPS) + spleen: spleen cellularity + spleen: spleen: relative weight + spleen: …
# [9] = short-term, duration: 7 days, gavage, M, C57BL/6, spleen: apoptotic splenocytes + spleen: spleen - mitochondrial membrane Rh123 fluorescence + spleen: spleen - ROS-DCF fluorescence + spleen…
# [10] = short-term, duration: 7 days, gavage, M, C57BL/6, spleen: splenic DN (CD4-CD8-) cells
# [11] = short-term, duration: 7 days, gavage, M, C57BL/6, spleen: splenocytes - CAT activity + spleen: splenocytes - GST activity + splenic lymphocyte protein - bax + splenic lymphocyte protein - …
# [12] = short-term, duration: 10 days, diet, M, 129/SV, spleen: spleen CD19+ cells + spleen: spleen CD4+ cells + spleen: spleen CD8+ cells + spleen: spleen cellularity + spleen: spleen Pan-NK+ …
# [13] = short-term, duration: 10 days, diet, M, C57BL/6, bone marrow: bone marrow cellularity + bone marrow: bone marrow: no. of CD19+ B-lymphoid cells + bone marrow: bone marrow: no. of Gr1+CD11b…
# [14] = short-term, duration: 10 days, diet, M, C57BL/6, spleen: spleen CD19+ cells + spleen: spleen CD4+ cells + spleen: spleen CD8+ cells + spleen: spleen cellularity + spleen: spleen NK1.1+ …
# [15] = short-term, duration: 10 days, diet, M, spleen: spleen: absolute weight + thymus: thymus CD4+ cells + thymus: thymus CD8+ cells + thymus: thymus cellularity + thymus: thymus DP (…
# [16] = short-term, duration: 12 days, gavage, M, C57BL/6, body mass after exposure + spleen: spleen CD8+ cells + spleen: spleen: relative weight + thymus: thymus: relative weight
# [17] = short-term, duration: 12 days, gavage, M, C57BL/6, spleen: spleen CD4+ cells + spleen: spleen cellularity
# [18] = short-term, duration: 14 days, gavage, F, BALB/c, spleen: spleen: relative weight + thymus: percentage of apoptotic cells in thymus + thymus: thymus: relative weight
# [19] = short-term, duration: 14 days, gavage, M, BALB/c, spleen: lymphocyte proliferation (ConA)
# [20] = short-term, duration: 14 days, gavage, M, BALB/c, spleen: spleen CD3+ cells + spleen: spleen CD3+CD4+ cells + spleen: spleen CD3+CD8+ cells
# [21] = short-term, duration: 14 days, gavage, M, BALB/c, spleen: spleen: relative weight
# [22] = short-term, duration: 21 days, gavage, F, B6C3F1, Survival rate (influenza A infection)
# [23] = short-term, duration: 21 days, gavage, M, BALB/c, spleen: lymphocyte proliferation (ConA)
# [24] = short-term, duration: 21 days, gavage, M, BALB/c, spleen: spleen CD3+ cells + spleen: spleen CD3+CD4+ cells + spleen: spleen CD3+CD8+ cells + spleen: spleen: relative weight
smiles,measurement,setting,value
O=S(=O)(O)C(F)(F)C(F)(F)C(F)(F)C(F)(F)C(F)(F)C(F)(F)C(F)(F)C(F)(F)F [Perfluorooctanesulfonic acid],NOAEL,Rattus norvegicus,< 2.88 mg/kg-day
same,NOEL (TAD),"Monkey; chronic, duration: 26 weeks, F, lymphocyte count (Day 182) + lymphocyte count (LYMPH) (Day 182) + segmented neutrophil count (Day 182) + segmented neutrophil count (N-SEG…",115 mg/kg-day
same,LOEL (TAD),Monkey; [1],115 mg/kg-day
same,NOEL (TAD),Monkey; [1],22.9 mg/kg-day
same,NOEL (TAD),"Monkey; chronic, duration: 26 weeks, M, lymphocyte count (LYMPH) (Day 182) + segmented neutrophil count (%) (Day 182) + segmented neutrophil count (N-SEG) (Day 182)",115 mg/kg-day
same,NOEL,Monkey; F,2 mg/kg-day
same,NOEL,Monkey; M,2 mg/kg-day
same,NOEL,"Mus musculus; developmental, duration: 16 days, gavage, F, B6C3F1, generation: F1, F1: body weight (4 weeks of age) + F1: body weight (8 weeks of age) + F1: IgM antibody titer (SRBC) + F1: spleen: spleen CD3+ cells + F1: …",5 mg/kg-day
same,LOEL,Mus musculus; [2],5 mg/kg-day
same,NOEL,Mus musculus; [2],1 mg/kg-day
same,LOEL,Mus musculus; [3],5 mg/kg-day
same,NOEL,Mus musculus; [3],1 mg/kg-day
same,NOEL,"Mus musculus; developmental, duration: 16 days, gavage, M, B6C3F1, generation: F1, F1: body weight (4 weeks of age) + F1: body weight (8 weeks of age) + F1: spleen: spleen B220+ cells + F1: spleen: spleen CD3+ cells + F1: …",5 mg/kg-day
same,LOEL,Mus musculus; [4],1 mg/kg-day
same,NOEL,Mus musculus; [4],0.1 mg/kg-day
same,NOEL,"Mus musculus; reproduction developmental, diet, M/F, BALB/c, generation: F1, F1: airway MCh sensitivity + F1: airway resistance (at 25 mg/mL methacholine) + F1: lung: BALF inflammatory cell counts: eosinophils + F1: …",4 ppm
same,LOEL,"Mus musculus; reproduction developmental, diet, M/F, BALB/c, generation: F1, F1: airway MCh sensitivity + F1: lung: BALF inflammatory cell counts: macrophages + F1: lung: BALF inflammatory cell counts: total cell …",4 ppm
same,NOEL,"Mus musculus; short-term, duration: 3 weeks, gavage, F, BALB/c, IgM antibody level (TNP 1:200) + IgM antibody level (TNP 1:50)",20 mg/kg-day
same,LOEL,"Mus musculus; short-term, duration: 7 days, gavage, F, BALB/c, Peripheral blood phagocytosis (HEMA) + spleen: lymphocyte proliferation (ConA) + spleen: spleen cellularity + spleen: Splenic NK cell …",20 mg/kg-day
same,NOEL,"Mus musculus; short-term, duration: 7 days, gavage, F, BALB/c, spleen: lymphocyte proliferation (LPS) + spleen: spleen CD4+ cells + spleen: spleen CD49b+ cells + spleen: spleen CD8+ cells + spleen: …",20 mg/kg-day
same,LOEL,Mus musculus; [5],10 mg/kg-day
same,NOEL,Mus musculus; [5],5 mg/kg-day
same,LOEL,Mus musculus; [6],5 mg/kg-day
same,NOEL,Mus musculus; [6],2.5 mg/kg-day
same,NOEL,"Mus musculus; short-term, duration: 7 days, gavage, M, BALB/c, spleen: spleen CD3+ cells + spleen: spleen CD3+CD4+ cells + spleen: spleen CD3+CD4+ cells (cells normalized to control) + spleen: spleen CD3…",10 mg/kg-day
same,LOEL,"Mus musculus; short-term, duration: 7 days, gavage, M, C57BL/6, IgM antibody-secreting cells (SRBC) + spleen: lymphocyte proliferation (ConA)",5 mg/kg-day
same,LOEL,Mus musculus; [7],20 mg/kg-day
same,NOEL,Mus musculus; [7],5 mg/kg-day
same,LOEL,Mus musculus; [8],20 mg/kg-day
same,NOEL,Mus musculus; [8],5 mg/kg-day
same,LOEL,"Mus musculus; short-term, duration: 7 days, gavage, M, C57BL/6, spleen: IL-4 levels + Total serum IgG level + Total serum IgM level",5 mg/kg-day
same,NOEL,"Mus musculus; short-term, duration: 7 days, gavage, M, C57BL/6, spleen: IL-10 secreting splenocytes",20 mg/kg-day
same,LOEL,Mus musculus; [9],5 mg/kg-day
same,NOEL,Mus musculus; [9],1 mg/kg-day
same,NOEL,"Mus musculus; short-term, duration: 7 days, gavage, M, C57BL/6, spleen: spleen: relative weight + thymus: thymus: relative weight",10 mg/kg-day
same,LOEL,Mus musculus; [10],40 mg/kg-day
same,NOEL,Mus musculus; [10],20 mg/kg-day
same,NOEL,"Mus musculus; short-term, duration: 7 days, gavage, M, C57BL/6, spleen: splenic DP (CD4+CD8+) cells",40 mg/kg-day
same,LOEL,Mus musculus; [11],10 mg/kg-day
same,NOEL,Mus musculus; [11],5 mg/kg-day
same,LOEL,Mus musculus; [12],0.02%
same,NOEL,Mus musculus; [12],0.005%
same,NOEL,"Mus musculus; short-term, duration: 10 days, diet, M, C57BL/6, blood serum: IL-6 levels (+LPS in vivo) + blood serum: TNF-alpha levels + blood serum: TNF-alpha levels (+LPS in vivo) + bone marrow: IL-6 …",0.02%
same,LOEL,"Mus musculus; short-term, duration: 10 days, diet, M, C57BL/6, blood serum: IL-6 levels + bone marrow: IL-6 levels (+ LPS in vitro) + bone marrow: IL-6 levels (+ LPS in vivo) + bone marrow: percent …",0.02%
same,LOEL,Mus musculus; [13],0.02%
same,NOEL,Mus musculus; [13],0.002%
same,NOEL,"Mus musculus; short-term, duration: 10 days, diet, M, C57BL/6, bone marrow: bone marrow: no. of early mature CD19+CD138-IgM+ B cells",0.02%
same,LOEL,"Mus musculus; short-term, duration: 10 days, diet, M, C57BL/6, intrahepatic immune cells: TER119 (erythroid progenitor) + liver: IFN-gamma levels + liver: IL-4 levels + liver: TNF-alpha levels",0.005%
same,NOEL,"Mus musculus; short-term, duration: 10 days, diet, M, C57BL/6, intrahepatic immune cells: all leukocytes (CD45+) + intrahepatic immune cells: B cells (CD19+) + intrahepatic immune cells: CD138 (plasma …",0.005%
same,LOEL,"Mus musculus; short-term, duration: 10 days, diet, M, C57BL/6, liver: IFN-gamma levels + liver: IFN-gamma levels (+Con A) + liver: IL-4 levels + liver: IL-4 levels (+Con A) + liver: TNF-alpha levels + …",0.004%
same,LOEL,Mus musculus; [14],0.02%
same,NOEL,Mus musculus; [14],0.005%
same,NOEL,"Mus musculus; short-term, duration: 10 days, diet, M, spleen: spleen CD19+ cells + spleen: spleen CD4+ cells + spleen: spleen CD8+ cells + spleen: spleen cellularity + spleen: spleen Pan-NK+ …",0.02%
same,LOEL,Mus musculus; [15],0.02%
same,NOEL,Mus musculus; [15],0.005%
same,LOEL,Mus musculus; [16],10 mg/kg-day
same,NOEL,Mus musculus; [16],5 mg/kg-day
same,LOEL,Mus musculus; [17],20 mg/kg-day
same,NOEL,Mus musculus; [17],10 mg/kg-day
same,LOEL,Mus musculus; [18],20 mg/kg-day
same,NOEL,Mus musculus; [18],5 mg/kg-day
same,NOEL,"Mus musculus; short-term, duration: 14 days, gavage, M, BALB/c, spleen mRNA expression of IL-1Beta + thymus mRNA expression of IL-1Beta + thymus: percentage of apoptotic cells in thymus + thymus: thymus: …",20 mg/kg-day
same,LOEL,Mus musculus; [19],10 mg/kg-day
same,NOEL,Mus musculus; [19],5 mg/kg-day
same,LOEL,"Mus musculus; short-term, duration: 14 days, gavage, M, BALB/c, spleen: spleen CD3+ cells (cells normalized to control) + spleen: spleen CD3+CD4+ cells (cells normalized to control) + spleen: spleen CD3+…",2.5 mg/kg-day
same,LOEL,Mus musculus; [20],5 mg/kg-day
same,NOEL,Mus musculus; [20],2.5 mg/kg-day
same,LOEL,Mus musculus; [21],20 mg/kg-day
same,NOEL,Mus musculus; [21],5 mg/kg-day and 10 mg/kg-day
same,LOEL,"Mus musculus; short-term, duration: 14 days, gavage, M, BALB/c, thymus: percentage of apoptotic cells in thymus + thymus: thymus: relative weight",5 mg/kg-day
same,LOEL (TAD),"Mus musculus; short-term, duration: 21 days, gavage, F, B6C3F1, IgM antibody titer (TNP)",7 mg/kg-day
same,LOEL,Mus musculus; [22],0.025 mg/kg-day
same,NOEL,Mus musculus; [22],0.005 mg/kg-day
same,NOEL,"Mus musculus; short-term, duration: 21 days, gavage, F, B6C3F1, body weight + body weight during influenza A infection (day 41, 20 days after infection) + spleen: spleen: relative weight + Survival time (…",0.025 mg/kg-day
same,LOEL,"Mus musculus; short-term, duration: 21 days, gavage, F, B6C3F1, body weight during influenza A infection (day 30, 9 days after infection)",0.005 mg/kg-day
same,LOEL,Mus musculus; [23],5 mg/kg-day
same,NOEL,Mus musculus; [23],2.5 mg/kg-day
same,LOEL,"Mus musculus; short-term, duration: 21 days, gavage, M, BALB/c, spleen: spleen CD3+ cells (cells normalized to control) + spleen: spleen CD3+CD4+ cells (cells normalized to control) + spleen: spleen CD3+…",2.5 mg/kg-day
same,NOEL,"Mus musculus; short-term, duration: 21 days, gavage, M, BALB/c, spleen: spleen CD3+ cells + spleen: spleen CD3+CD4+ cells (cells normalized to control) + spleen: spleen CD3+CD8+ cells (cells normalized to…",10 mg/kg-day
same,LOEL,Mus musculus; [24],10 mg/kg-day
same,NOEL,Mus musculus; [24],5 mg/kg-day
same,LOEL,"Mus musculus; short-term, duration: 28 days, diet, M, B6C3F1, corticosterone",0.000156%
